The text below walks through data of the METLIN SMRT retention time set (Domingo-Almenara et al. 2019).

Structures are written as SMILES.

This series is described as follows: gradient 5% acetonitrile 3 min, to 50% in 2 min, to 85% in 15 min, held 3 min, 100 µL/min. As to conditions: column: Zorbax Extend-C18 2.1 x 50 mm; eluents: water / acetonitrile, 0.1% formic acid. Summed up:
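Each retention time is based on an adduct peak selected computationally and verified by manual inspection. Measurements used HPLC–quadrupole time-of-flight mass spectrometry in positive and negative ionization mode on mixtures of ~100 pure standards. Chromatography ran on a Zorbax Extend-C18 column (2.1 × 50 mm, 1.8 μm) at 100 μL/min with water and acetonitrile, each containing 0.1% formic acid, and dead and dwell volumes of 40 μL and 900 μL.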
In turn, `O=C(c1ccc2ccnc(N3CCN(c4ccccc4)CC3)c2c1)N1CCN(c2ccccn2)CC1` came in with an RP-LC retention time of 616 s.

`C=CCN(CC=C)C(=O)Nc1cc(OC)ccc1OC` displayed an RP-LC retention time of 962 s.

On to `Cn1ncc2c(N3CCSCC3)nc(C(=O)Nc3cccc(OC(F)(F)F)c3)nc21`, for which the RP-LC retention time amounted to 1010 s.

`CCc1cc(=O)n(CC(=O)Nc2ccccc2Cl)c(N2CCOCC2)n1` gave an RP-LC retention time of 830 s.

The compound `CC(C)C(=O)N1CCCC1c1nc(CCOCC2CC2)no1` (centres undefined) came in with an RP-LC retention time of 733 s.

`CN(C)c1ccc(Nc2nc(-c3ccccc3)cs2)cc1`: the RP-LC retention time worked out at 705 s.

For `CC1=C(c2ccccc2)S(=O)(=O)N=C1N1CCCN(C(=O)C2CCCC2)CC1`, the RP-LC retention time stood at 814 s.

The compound `O=C(Nc1ccc2c(c1)OCCO2)N1CCC(n2c(-c3ccco3)nc3cccnc32)C1` (centres undefined) returned an RP-LC retention time of 705 s.

As to `COc1cccc(-c2nc3nc(C)c(CCC(=O)NC4CCCCC4)c(C)n3n2)c1`, the RP-LC retention time came to 827 s.

On to `O=C(Nc1cnc(N2CCCCCC2)nc1)C1CCCC1`, for which the RP-LC retention time is 844 s.

Consider `O=c1n(Cc2ccc(Cl)cc2)nc2ccc(S(=O)(=O)N3CCOCC3)cn12`, for which the RP-LC retention time stood at 676 s.

`CC1CCN(C(=O)Cn2nc3nc(Nc4ccc(F)cc4)ccn3c2=O)CC1` showed an RP-LC retention time of 754 s.

In turn, `CCOc1ccccc1C(=O)Nc1cccn2c(C3CCC3)nnc12` yielded an RP-LC retention time of 953 s.

In turn, `CCCCNC(=O)C1c2cc(OC)c(OC)cc2C(=O)N(C)C1c1ccc(OC)cc1` (centres undefined) had an RP-LC retention time of 764 s.

Regarding `Cc1ccc(Cn2cc(-c3ccncc3)cc2C(=O)Nc2ccc3c(c2)OCO3)cc1`, the RP-LC retention time was 760 s.

`CCOC(=O)c1c(C)c(C(=O)CN(CC2CCCO2)C(=O)c2cccc(F)c2)c(C)n1C` (centres undefined) gave an RP-LC retention time of 920 s.

`Cc1ccc2cc(CCC(=O)NC3CCN(Cc4ccccc4)CC3)c(=O)[nH]c2c1` had an RP-LC retention time of 614 s.

The compound `Nc1nc(-c2ccc(O)cc2)cs1` showed an RP-LC retention time of 547 s.

Compound `Cc1ccc2c(c1)[C@H]1OCCC[C@H]1C(c1cccc(O)c1)N2` (some centres undefined) returned an RP-LC retention time of 928 s.

Compound `CCN(CC)C(=O)c1cnc2nc(C)ccc2c1Nc1ccc(S(N)(=O)=O)cc1` came in with an RP-LC retention time of 574 s.

`CCN1C(=O)COc2ccc(-c3noc(-c4ccccc4C(F)(F)F)n3)cc21` showed an RP-LC retention time of 1140 s.

As to `COc1cccc(NC(=O)C2c3ccccc3C(=O)N3CCc4cc(OC)c(OC)cc4C23)c1` (centres undefined), the RP-LC retention time was 784 s.

Regarding `Cc1cc(C)c(NC(=O)Cn2nc3c(Oc4ccccc4C)nccn3c2=O)c(C)c1`, the RP-LC retention time is 894 s.

Consider `Cc1ccc(CNC(=O)C2CCCN(c3nc4c(s3)c(C)nn4-c3ccc(C)cc3)C2)cc1` (centres undefined), for which the RP-LC retention time is 1210 s.

Take `c1nc2ccc(-c3nc(-c4ccc5c(c4)nnn5CCN4CCCCC4)no3)cc2[nH]1`: the RP-LC retention time was found to be 570 s.

The compound `CCCN(C(=O)c1cccc(OC)c1)c1nc(-c2ccccc2)cs1` displayed an RP-LC retention time of 1350 s.

In turn, `CCc1ccc(NC(=O)C(C)Oc2cc(C(F)(F)F)c3c(C)nn(C)c3n2)cc1` (centres undefined) returned an RP-LC retention time of 1030 s.

`Cc1cc(C)cc(Nc2nc(C)cc3nn(CC(=O)N(C)c4ccccc4)c(=O)n23)c1` came in with an RP-LC retention time of 1160 s.

As to `CCC(=O)Nc1ccc2c(c1)Sc1ncccc1C(=O)N2CC`, the RP-LC retention time came out at 655 s.

In turn, `Cn1cnc(S(=O)(=O)NCCc2noc(-c3ccccc3)n2)c1` had an RP-LC retention time of 703 s.

`CCCN1CCN(C(=O)C2=Cc3cc(-c4ccccc4)ccc3OC2)CC1` yielded an RP-LC retention time of 714 s.

Regarding `CC(=O)c1cccc(NC(=O)N(c2ccccc2)c2ccccc2)c1`, the RP-LC retention time came to 860 s.

For the compound `CC(=O)Nc1ccc(CC(=O)N2CCCC(c3nc(-c4ccc(NC(C)=O)cc4)no3)C2)cc1` (centres undefined), the RP-LC retention time is 675 s.

As to `C[C@H]1CN(C(=O)Cc2c(F)cccc2Cl)C[C@@H]1c1nc(-c2ccccc2)no1`, the RP-LC retention time was 1100 s.

In turn, `O=C(Nc1ccc(F)cc1)Nc1ccc2nncn2c1` gave an RP-LC retention time of 659 s.

As for `O=C(Cc1csc(NC(=O)Nc2cccc(Cl)c2)n1)Nc1ccccc1`, the RP-LC retention time worked out at 924 s.

`NC(=O)c1cc(-c2ccccc2F)nc2ccccc12` came in with an RP-LC retention time of 740 s.

Compound `Cc1ccc(NC(=O)N2CCCC2c2nncn2C2CCCC2)cc1F` (centres undefined) displayed an RP-LC retention time of 728 s.

The compound `CCn1c(C)c(CCC(=O)Nc2ccccc2)c(=O)n2nc(-c3ccccc3)nc12` had an RP-LC retention time of 847 s.

The compound `CC(=O)Nc1cc(C(=O)NCc2ccccc2Br)c2ccc(C)nc2c1` returned an RP-LC retention time of 623 s.

Consider `CCS(=O)(=O)c1nc2ccc(NS(=O)(=O)CCc3ccccc3)cc2s1`, for which the RP-LC retention time was found to be 918 s.

Consider `O=C(CCNc1c(-c2cccc(F)c2)nc2cnccn12)NCc1ccc(F)cc1`, for which the RP-LC retention time worked out at 755 s.

With `Cc1cc(C)c2c(-n3cccc3)nn(CC(=O)NCC(C)c3ccccc3)c2n1` (centres undefined), the RP-LC retention time is 1040 s.

`COc1ccc(S(=O)(=O)N2CC3CN(C(=O)Cc4cccc(F)c4)CC(C2)O3)cc1` gave an RP-LC retention time of 825 s.

In turn, `COc1ccc(-c2nc(-c3ccc(S(=O)(=O)N4CCCC4)cc3)no2)cc1` returned an RP-LC retention time of 1140 s.

`CN1CCCn2cc(S(=O)(=O)NCCc3ccc(Cl)cc3)cc2C1=O` showed an RP-LC retention time of 752 s.

For the compound `Cc1ccc(NC(=O)C2CCN(S(C)(=O)=O)c3cc(C)ccc3O2)c(C)c1` (centres undefined), the RP-LC retention time was 945 s.

`CC(C)(C)n1nc2c(c1NC(=O)c1cccs1)CS(=O)(=O)C2` returned an RP-LC retention time of 690 s.

Take `O=C(NCCN1CCOCC1)c1sc2cc(Cl)ccc2c1Cl`: the RP-LC retention time is 590 s.

With `COC(=O)c1ccsc1NC(=O)C1COCC(=O)N1Cc1ccccc1` (centres undefined), the RP-LC retention time was 786 s.

For the compound `COCCNC(=O)c1nc(N2CCSCC2)c2c(C)cc(C)nc2n1`, the RP-LC retention time was 591 s.

`CCC(C)NS(=O)(=O)c1cc(-c2c(C)noc2NC(C)=O)ccc1OC` (centres undefined): the RP-LC retention time turned out to be 720 s.

As to `CCc1nc(-c2csc(S(=O)(=O)N3CCCC(C(=O)N4CCc5ccccc5C4)C3)c2)no1` (centres undefined), the RP-LC retention time amounted to 1060 s.

Consider `CC(C)(C)NC(=O)N1CCC2(CC1)CC(Cc1nc(-c3cnccn3)no1)CCO2` (centres undefined), for which the RP-LC retention time is 720 s.

Compound `O=C1CC(c2ccccc2)Cc2nc(N3CCN(c4ccccn4)CC3)ncc21` (centres undefined) registered an RP-LC retention time of 624 s.

`CC(C)c1cc(C2CCCN2C(=O)c2ccccc2)no1` (centres undefined) showed an RP-LC retention time of 847 s.

As for `CNS(=O)(=O)c1cccnc1Nc1cccc(C(C)C)c1`, the RP-LC retention time worked out at 1080 s.

In turn, `Cc1sc(NC(=O)Cc2nn(C)c(=O)c3ccccc23)nc1-c1ccc(Cl)cc1` yielded an RP-LC retention time of 982 s.

Turning to `COc1ccc(-c2ncc3c(n2)CCN(S(=O)(=O)c2cccs2)C3)cc1`, the RP-LC retention time came out at 997 s.

In the case of `COc1ccc(CC(=O)Nc2ccc3c(c2)CCC(=O)N3C)c(Cl)c1`, the RP-LC retention time is 768 s.

With `CC1(C)CC(=O)C2=C(C1)N(Cc1ccco1)C(=O)C2(NC(=O)CCc1ccccc1)C(F)(F)F` (centres undefined), the RP-LC retention time was found to be 996 s.

`COc1ccc(CNC(=O)C2(C)CCN(C(=O)NCc3ccco3)CC2)cc1`: the RP-LC retention time came out at 700 s.

As to `CS(=O)(=O)Nc1ccc(C2(C(=O)N3CCN(c4ccccc4)CC3)CCCCC2)cc1`, the RP-LC retention time was found to be 674 s.

Take `CCN1C(=O)COc2ccc(-c3noc(COc4ccc(Cl)cc4)n3)cc21`: the RP-LC retention time was 1110 s.

The compound `O=C(Cn1cnc2c(-c3ccc(Cl)cc3)csc2c1=O)NC1CCCC1` came in with an RP-LC retention time of 933 s.

`CCOC(=O)c1cnc(N2CCN(c3cccc(Cl)c3)CC2)c2ccccc12` yielded an RP-LC retention time of 652 s.

`COc1cccc2c(C)nc(NC3=NCN(Cc4cccnc4)CN3)nc12` came in with an RP-LC retention time of 567 s.

Compound `CC(=O)c1cccc(NC(=O)C2CC(=O)N(c3ccc4c(c3)CCN4C(=O)C3CCC3)C2)c1` (centres undefined) registered an RP-LC retention time of 760 s.

Turning to `Cn1c(=O)n(C)c2cc(CNc3ccc(N4CCOCC4)c(Cl)c3)ccc21`, the RP-LC retention time came out at 811 s.

For the compound `Cc1cccc(NS(=O)(=O)c2cc(-c3[nH]ncc3C(=O)N(C)C)oc2C)c1C`, the RP-LC retention time amounted to 712 s.

Consider `CCCNC(=O)NCc1nc(-c2ccc(Cl)cc2)no1`, for which the RP-LC retention time turned out to be 806 s.

The compound `Cc1ccc(NC(=O)c2cnc3c(c2)c(=O)n(C)c(=O)n3-c2ccccc2)cc1F` came in with an RP-LC retention time of 956 s.

As for `CC(C)(C)c1ccc(C(=O)NC2(c3nc(-c4ccncc4)no3)CCCCC2)cc1`, the RP-LC retention time came to 1190 s.

`COc1ccc(NC(=O)c2cn3c(n2)CCCC3)cc1F`: the RP-LC retention time is 601 s.

With `COc1cccc(N2CCN(c3ccnc(SCC(=O)Nc4ccccc4F)n3)CC2)c1`, the RP-LC retention time came out at 789 s.

`O=c1nc(NCc2ccccc2)c2ccccc2[nH]1` showed an RP-LC retention time of 620 s.

Regarding `CCc1noc(NC(C)=O)c1-c1ccc(C)c(S(=O)(=O)Nc2ccc(F)cc2Cl)c1`, the RP-LC retention time worked out at 872 s.

Take `O=C(c1cccc(Cl)c1)N1CCC2(C1)NC(=O)N(Cc1ccc(F)cc1)C2=O` (centres undefined): the RP-LC retention time is 820 s.

With `COc1ccccc1-c1csc(-c2nnn(-c3ccc(Cl)cc3)c2N)n1`, the RP-LC retention time was 1190 s.
